Key:
[1] = in vivo; cited from earlier work
[2] = In vivo biodistribution in nu/nu mice; settings: for 225Ac Biodistribution, Blood / 225Ac Biodistribution, Bone / 225Ac Biodistribution, Kidneys / 225Ac Biodistribution, Liver: average; for pattern of distribution: intraperitoneal, approx. 2 μCi, nu/nu mice, period of 5 days
Experimental: Counting was carried out half an hour after sample preparation.

[3] = target: T1, antigen excess (HuM195 is anti-CD33) (Homo sapiens, UniProt P20138); assay: Cell-based immunoreactivity study (binding of labeled antibody to antigen excess)
T1 construct: host or cells: unnamed antigen-bearing cells

[4] = test system: antigen negative cell line; assay: In-vitro cell kill (3H-thymidine incorporation), antigen negative cell line; assay type: cell-based
[5] = test system: target cells; assay: Internalization of isotope into target cells; assay type: cell-based; settings: in 5 hours
[6] = test system: antigen positive cell line; assay: In-vitro cell kill (3H-thymidine incorporation), antigen positive cell line; assay type: cell-based

T1 sequence (P20138 18-364): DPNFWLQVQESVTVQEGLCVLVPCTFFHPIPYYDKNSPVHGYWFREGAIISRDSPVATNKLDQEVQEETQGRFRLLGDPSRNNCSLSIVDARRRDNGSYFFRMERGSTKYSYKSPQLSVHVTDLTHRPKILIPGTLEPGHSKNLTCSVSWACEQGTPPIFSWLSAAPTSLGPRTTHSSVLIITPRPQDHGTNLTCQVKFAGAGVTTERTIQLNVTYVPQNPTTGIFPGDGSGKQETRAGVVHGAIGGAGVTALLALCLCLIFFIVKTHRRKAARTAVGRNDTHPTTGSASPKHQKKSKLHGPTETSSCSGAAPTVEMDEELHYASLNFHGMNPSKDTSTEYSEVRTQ

Compound | excretion [1] | liver uptake [1] | 225Ac Biodistribution, Blood ([2]; 1 d) [% dose/g] | 225Ac Biodistribution, Blood ([2]; 2 d) [% dose/g] | 225Ac Biodistribution, Blood ([2]; 5 d) [% dose/g] | 225Ac Biodistribution, Bone ([2]; 1 d) [% dose/g] | 225Ac Biodistribution, Bone ([2]; 2 d) [% dose/g] | 225Ac Biodistribution, Bone ([2]; 5 d) [% dose/g] | 225Ac Biodistribution, Kidneys ([2]; 1 d) [% dose/g] | 225Ac Biodistribution, Kidneys ([2]; 2 d) [% dose/g] | 225Ac Biodistribution, Kidneys ([2]; 5 d) [% dose/g] | 225Ac Biodistribution, Liver ([2]; 1 d) [% dose/g] | 225Ac Biodistribution, Liver ([2]; 2 d) [% dose/g] | 225Ac Biodistribution, Liver ([2]; 5 d) [% dose/g] | pattern of distribution [2] | immunoreactive fraction [3] [%] | LD50 in a 2-day assay [4] | isotope internalized in the target cells [5] | LD50 in a 2-day assay ([6]; 2-day assay, positive cell line) | LD50 in a 5-day assay ([6]; 5-day assay, specific activity of 0.035 Ci/g, 3H-thymidine incorporation) [nCi/ml]
O=P(O)(O)CN(CCN(CP(=O)(O)O)CP(=O)(O)O)CP(=O)(O)O [^225Ac-EDTMP, ethylenediaminetetra-methylenephosphonic acid, metal not drawn] | poor | still substantial |  |  |  |  |  |  |  |  |  |  |  |  |  |  |  |  |  | 
CC(=O)[O-].CC(=O)[O-].CC(=O)[O-].[225Ac+3] [^225Ac Acetate, reference compound] |  |  | 0.1 | 0.2 | 0.0 | 13.3 | 12.0 | 17.1 | 3.8 | 3.2 | 2.8 | 46.6 | 43.1 | 68.5 | held up in the liver and bone but cleared from blood |  |  |  |  | 
^225Ac-HuM195-MeO-DOTA |  |  | 10.1 | 10.2 | 4.5 | 3.8 | 4.1 | 5.3 | 4.6 | 5.2 | 4.6 | 8.8 | 10.0 | 20.7 | longer blood circulation time and less bone uptake | ~70 | about 28 nCi/ml | more than 50% | about 1.4 nCi/ml | ~0.3

From patent US20030086868A1, “Actinium-225 complexes and conjugates for radioimmunotherapy” (priority 2002, published 2003)
